This note sets out measurements from patent publication US20190307818A1, “NOVEL ANTIMICROBIAL COMPOSITIONS AND METHODS OF USE” (priority 2016, published 2019).

The subject of assay [1] is P. aeruginosa PA14 ΔlasI ΔrhII CRISPR adaptation. Description: CRISPR adaptation (new spacer integration by PCR). Format: cell-based. The settings on record: ΔlasI ΔrhII strain; AIs 2 μM 3-O—C12-HSL+10 μM C4-HSL given together; Baicalein 100 μM with AIs; vs DMSO. On the procedure:
FIG. 3. QS inhibitors block CRISPR adaptation and disable QS-mediated bacterial immunity. A P. aeruginosa PA14 ΔlasI ΔrhII QS deficient strain was transformed with foreign DNA (e.g., a CRISPR-targeted plasmid). A single colony from the transformation was re-streaked on selective media containing either DMSO (as a control), AIs (2 μM 3-O—C12-HSL+10 μM C4-HSL), or AIs and a QS inhibitor (2 μM 3-O—C12-HSL+10 μM C4-HSL+100 μM Baicalein). Single colonies were tested for integration of new inserted spacers (conferring immunity) against the CRISPR-targeted plasmid. In particular, PCR primers were designed to amplify specific genomic regions into which spacers were inserted. Primers complementary to the region upstream of the CRISPR region and to the second spacer region were designed, and PCR amplification was utilized to test for the presence of the newly inserted spacer (a process referred to as adaptation).
A P. aeruginosa PA14 ΔlasI ΔrhII QS deficient strain was transformed with foreign DNA (e.g., a CRISPR-targeted plasmid such as pCR2SP1, as described above). A single colony from the transformation was re-streaked on selective medium, e.g., LB medium containing 50 μg/ml gentamicin and either DMSO (as a control), AIs (2 μM 3-O—C12-HSL+10 μM C4-HSL), or both AIs and a QS inhibitor (2 μM 3-O—C12-HSL+[…] C4-HSL+100 μM Baicalein QS inhibitor) and incubated at 37° C. O/N. Single colonies were tested for integration of new immunity spacers against the CRISPR-targeted plasmid by PCR using iProof High-Fidelity DNA Polymerase (Bio-Rad) and primers CR2SP check F+R upstream of the CRISPR2 region and in the second spacer. Thus, PCR primers were designed to amplify the genomic region in which the new spacer was present. Primers targeting a sequence upstream of the CRISPR-Cas region and targeting the second spacer region were designed, and PCR amplification was utilized to test for the presence of the new inserted spacer (a portion of the plasmid sequence inserted between the CRISPR locus and spacers). […]

The test system of a further assay is LasR and RhlR. Description: Receptor specific reporter assays for LasR and RhlR activity (stated in words). Format: cell-based, P. aeruginosa. The source says:
wherein R may be H or OH, and two or more of the R substituents of a given compound are OH; R′ is H or OH; and R″ is H or OH. […] A variety of compounds were obtained and tested for activity (e.g., inhibition of receptor specific reporter assays for LasR and RhlR activity).
(§1) A two plasmid E. coli reporter system was constructed, in which LasR or RhlR was expressed under an arabinose inducible promoter (e.g., LasR or RhlR was cloned into a pBAD-A vector and expressed upon addition of arabinose) in the presence of a LasR-dependent or RhlR-dependent promoter fused to luciferase (e.g., cloned into a pCS26 vector). Upon the addition of arabinose and in the presence of AI, LasR or RhlR were expressed, formed a complex with the cognate AI, underwent dimerization, and activated transcription of the reporter construct. All potential inhibitors were tested at 100 μM. The percent activity was reported relative to wild-type (100%).
(In general: In a reporter assay the amount or activity of a reporter protein is the signal.)

The target in assay [2] is T1, LasR (Pseudomonas aeruginosa, UniProt P25084).
T1 construct: expressed in transfected cells; host or cells: E. coli TOP10 carrying pBAD-A 6xHIS-lasR and pCS26 plasB-luxCDABE
Description: Two plasmid E. coli LasR reporter (luciferase). In kind it is cell-based, P. aeruginosa. The conditions noted are these: read-out: Percent Activity (LasR reporter).
Excerpt: as §1
A sample experimental protocol for the RhlR reporter (see, e.g., Table 5A2) or for the LasR reporter (see, e.g., Table 5A1).
A clean plate was filled with water, 70% ethanol, LB, and primed with cultured cells to ensure that initial dispensing led to the appropriate volume of cells being added to the wells. 20 μL of this solution was dispensed into appropriate wells in a 384-well plate that contained small molecule antagonists. 20 μL of this solution was dispensed into wells intended for a positive control that contain only DMSO. To the culture that was saved for negative control, arabinose was added to 0.1%. An equal volume of DMSO was added to the culture, relative to the amount of AI added to the other culture. 20 μL of culture was dispensed into wells intended for a negative control that contained only DMSO and no small molecule QS inhibitors. Plates were incubated at 30° C. in the plate shaker. Plates were read using a 384 LUM/OD 600 setting on the plate reader after 4 hours of induction.
For data analysis, the average and standard deviation for each of the control groups were determined. In a screen, for each data point, the number of standard deviations from the mean was determined to determine if the inhibitor was a “hit”. In a dose response curve, for each data point, the percent inhibition was determined: 1−(X/M), where X=single data point and M=is the mean of the AI only control group. The dose response curve was then plotted as a function of % inhibition (y) v. [inhibitor] on a log scale (x).

Assay [3] addresses T1, LasR. Description: 10-point autoinducer dose response on LasR reporter with QS inhibitor (competition). Format: cell-based, P. aeruginosa. The conditions noted are these: inhibitor at 100 μM; increasing concentrations of AI. On the procedure:
FIG. 4. QS inhibitors bind non-competitively to LasR. A 10-point dose response curve with increasing concentrations of autoinducer 3-O—C12-HSL (AI) was generated for a variety of QS small molecule inhibitors. In this figure, curve C12 (filled circle) corresponds to the absence of inhibitor. […] Instead, the inhibitors bind elsewhere on LasR to prevent LasR-dependent transcription.
Using known molecular biology techniques, assays were performed to determine whether binding of the small molecule QS inhibitors and the AIs occurred by a competitive or by another inhibitory mechanism (see, e.g., FIG. 4).
Thus, a 10-point dose response curve with concentrations of AI ranging from 10 pM to 5 nM was generated for a variety of QS small molecule inhibitors. Curve C12 (dotted filled line) corresponds to the absence of inhibitor. […] Instead, the inhibitors bind elsewhere on LasR to prevent LasR-dependent transcription.

Assay [4] concerns Wild-type P. aeruginosa pyocyanin production. Description: Pyocyanin virulence factor production. In kind it is cell-based. The conditions noted are these: 100 μM overnight, back diluted, grown 18 hrs with inhibitor. How it is done: FIG. 6. QS inhibitors reduce the level of virulence factor production in P. aeruginosa. The ability of the small molecule inhibitors to reduce virulence factor production by monitoring pyocyanin production was assessed.
The ability of the small molecule QS inhibitors to reduce virulence factor production by monitoring production of pyocyanin as a representative virulence factor was assessed. Wild-type P. aeruginosa was incubated with the indicated molecules at 100 μM overnight, back diluted, and grown for 18 hrs in the presence of QS inhibitor.
By varying the concentration of QS inhibitors, dose dependence curves were generated.

Each structure is given as a SMILES string.

T1 sequence (P25084 whole entry): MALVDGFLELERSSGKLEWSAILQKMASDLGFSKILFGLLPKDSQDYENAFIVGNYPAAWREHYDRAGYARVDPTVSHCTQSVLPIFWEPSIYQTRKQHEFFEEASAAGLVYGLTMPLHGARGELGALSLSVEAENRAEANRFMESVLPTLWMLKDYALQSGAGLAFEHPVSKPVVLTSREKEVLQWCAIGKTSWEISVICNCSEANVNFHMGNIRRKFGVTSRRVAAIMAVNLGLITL

Turning to `O=c1cc(-c2ccccc2)oc2cc(O)c(O)c(O)c12` [Molecule 46, Baicalein], the “CRISPR adaptation (fraction of cells in the colony that adapted)” value in assay [1] was “blocked the positive effects of AIs on CRISPR adaptation”. Moreover, the “activity (inhibition of receptor specific reporter assays for LasR and RhlR activity)” value in the assay with LasR and RhlR was “inhibit both LasR and RhlR”. Also, at LasR [2], the remaining activity at 100 µM was found to be 46.7%. The “competition with autoinducer 3-O—C12-HSL for LasR” value on LasR [3] is “did not compete”. The pyocyanin production entry in assay [4] is listed as “inhibit pyocyanin to varying degrees”.
